Measured values published in USRE45916E1, “Intraoperative imaging of renal cortical tumors and cysts” (University of Rochester, priority 2006, dated 2016).
Entries after “also recorded” stand apart in the source; their conditions may differ. Where two headings read alike, the source gives them in different places.

Assays:
[1] = mammals, several months after the treatment, cited from earlier work
[2] = test system: renal cortical tumors and cysts; test: Clinical trial: intraoperative near infrared fluorescence (NIRF) imaging of the kidney after intravenous ICG in radical or partial nephrectomy patients; assay type: in vivo, human
Protocol: Following Institutional Review Board approval, a clinical trial of the invention was conducted. Ten patients presenting for radical or partial nephrectomy were enrolled in the trial. After the kidney was mobilized (typically, only one of the patient's kidneys is involved in such operations), ˜10 cc (2.5 mg/ml) of ICG was injected intravenously. Shortly after injection, near infrared fluorescence (NIRF) imaging was conducted and recorded using a LUNA™ NIRF system (Novadaq Technologies Inc, Mississauga, Canada). The first two patients selected presented for radical nephrectomy. […] After removal, the kidneys were studied by NIRF imaging to confirm that normal and tumor tissue could be distinguished. […] Eight of these patients were studied.

[3] = Clinical trial: safety of intravenous ICG in nephrectomy patients; assay type: in vivo, human; details: ten patients, ICG intravenously
Protocol: Following Institutional Review Board approval, a clinical trial of the invention was conducted. Ten patients presenting for radical or partial nephrectomy were enrolled in the trial. After the kidney was mobilized (typically, only one of the patient's kidneys is involved in such operations), ˜10 cc (2.5 mg/ml) of ICG was injected intravenously. Shortly after injection, near infrared fluorescence (NIRF) imaging was conducted and recorded using a LUNA™ NIRF system (Novadaq Technologies Inc, Mississauga, Canada).
Microscopy and histological studies were performed on excised tissue. […] Histological examination using hematoxylin and eosin staining confirmed the location of differential ICG fluorescence in tumor and normal renal tissue. All surgical margins were negative: 4 mm (the range of the margin was from 2-10 mm).

[4] = Animal studies: ICG injected into the penis to image nerves, kidney fluorescence observed; assay type: in vivo; details: animals
From the text: The present invention stems in part from studies we took in using the near infrared fluorescent dye indocyanine green (“ICG”) to image cavernous nerves of the penis. When abdominal incisions were made, we noted that the kidneys were fluorescent for hours to days after ICG administration, even though ICG is cleared quickly from the circulation. Because we are urologists, we are aware that kidney tumors tend to be hypervascular and develop rich vascular beds that are not uniform. We formed the hypothesis that the vascular beds would tend to impede the flow of ICG out of the tumor. We realized that any difference in admission or retention of fluorescent dye between normal and tumor tissue would result in different amounts of fluorescence, and that these differences could be exploited to detect the presence or absence of tumors in areas of the kidney. We hypothesized that kidney tumors would tend to retain ICG more than areas of the kidney with normal vasculature, and that areas within the kidney that fluoresced when exposed to light of an appropriate excitation frequency would identify the presence of tumors.
Typically, the dye is administered sufficiently before the intended surgery to permit the kidney to take up the dye, but not so long before the surgery that the dye has been cleared by the liver or otherwise eliminated from the body. […]

intrinsic brain tumors = details: nine patients, ICG as intravenous contrast-enhancement agent; cited from earlier work
[5] = cited from earlier work

Compound	neuronal toxicity [1]	neuronal toxicity ([1]; listed as fluorogold)	surgical margins ([2]; partial nephrectomy under NIRF imaging)	fluorescence of complex / hemorrhagic cysts under NIRF imaging ([2]; patients, ICG intravenously)	fluorescence of normal kidney tissue under NIRF imaging ([2]; patients, ICG intravenously)	fluorescence of kidney tumors under NIRF imaging ([2]; patients, ICG intravenously, ~10 cc (2.5 mg/ml), against normal kidney parenchyma)	fluorescence of benign cysts under NIRF imaging ([2]; patients, ICG intravenously, compared to normal parenchyma)	effects of the dye on post-operative hepatorenal function [3]	hypersensitivity reactions [3]	kidney fluorescence 18 hours after injection ([4]; ICG injected into the penis, 18 hours after injection)	duration of kidney fluorescence after ICG administration ([4]; seen at abdominal incision)	dynamic optical signals of brain tissue and tumors (intrinsic brain tumors)	optical imaging of resection margins in malignant tumors (intrinsic brain tumors)	metabolism ([5]; in the body)	excretion ([5]; in vivo)	reabsorption from the intestine / enterohepatic recirculation ([5]; in vivo)	distribution after intravenous injection ([5]; with normal vascular permeability)
N=C(N)c1ccc(/C=C/c2ccc(C(=N)N)cc2O)cc1 [Fluorogold]	low evidence of neuronal toxicity	without evidence of neuronal toxicity															
CC1(C)C(/C=C/C=C/C=C/C=C2\N(CCCCS(=O)(=O)O)c3ccc4ccccc4c3C2(C)C)=[N+](CCCCS(=O)(=O)[O-])c2ccc3ccccc3c21 [ICG, indocyanine green]			negative	hypo- or non-fluorescent; also recorded: NIRF characteristics of renal cell carcinoma	fluoresced brightly; also recorded: brightly fluorescent	non-fluorescing “black” or hypofluorescent “gray” areas; also recorded: hypo- or non-fluorescent areas; also recorded: hypo-fluorescent or non-fluorescent areas	even more fluorescent than did normal tissue; also recorded: increased fluorescence compared to the normal parenchyma	No hypersensitivity reactions or effects of the dye on post-operative hepatorenal function were observed	No hypersensitivity reactions	intense fluorescence	hours to days	differences in the dynamic optical signals among normal brain, low-grade astrocytomas, and malignant astrocytomas	differences between adjacent normal tissue and remaining tumor tissue	not metabolized in the body	excreted exclusively by the liver	not reabsorbed from the intestine and does not undergo enterohepatic recirculation	remains intravascular
